Like-named read-outs stand apart in the source and are kept apart here. No end group written: not given here.
T1: human TAS1R2-WT/TAS1R3-R247H (Homo sapiens, UniProt Q7RTX0+Q8TE23, R247H)
T1 construct: expressed in transfected cells; host or cells: HEK293T stably expressing Gα16gust44
T1 sequence (Q8TE23 20-839): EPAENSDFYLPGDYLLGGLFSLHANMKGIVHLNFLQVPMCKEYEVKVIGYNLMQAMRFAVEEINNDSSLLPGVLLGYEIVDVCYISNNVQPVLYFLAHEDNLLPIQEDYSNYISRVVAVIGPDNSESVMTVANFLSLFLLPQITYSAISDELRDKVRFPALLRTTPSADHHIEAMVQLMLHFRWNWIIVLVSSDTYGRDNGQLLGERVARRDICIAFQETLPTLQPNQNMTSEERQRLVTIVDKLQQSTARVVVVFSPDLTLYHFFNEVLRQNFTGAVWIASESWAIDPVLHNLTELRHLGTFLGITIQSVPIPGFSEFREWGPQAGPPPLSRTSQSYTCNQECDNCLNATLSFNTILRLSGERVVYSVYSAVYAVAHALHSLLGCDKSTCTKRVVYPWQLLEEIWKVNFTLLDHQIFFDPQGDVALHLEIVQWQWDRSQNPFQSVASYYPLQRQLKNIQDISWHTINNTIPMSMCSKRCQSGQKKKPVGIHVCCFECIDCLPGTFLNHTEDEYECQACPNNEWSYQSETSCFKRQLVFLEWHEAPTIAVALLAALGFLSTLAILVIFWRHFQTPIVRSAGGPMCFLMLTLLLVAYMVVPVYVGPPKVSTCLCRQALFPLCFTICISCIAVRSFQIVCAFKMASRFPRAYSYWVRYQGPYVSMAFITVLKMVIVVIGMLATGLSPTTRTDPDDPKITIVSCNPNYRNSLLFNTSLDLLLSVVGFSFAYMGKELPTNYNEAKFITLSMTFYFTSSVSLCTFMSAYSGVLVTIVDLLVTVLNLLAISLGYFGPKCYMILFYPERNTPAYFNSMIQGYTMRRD
T1 sequence (Q7RTX0 21-852 R247H): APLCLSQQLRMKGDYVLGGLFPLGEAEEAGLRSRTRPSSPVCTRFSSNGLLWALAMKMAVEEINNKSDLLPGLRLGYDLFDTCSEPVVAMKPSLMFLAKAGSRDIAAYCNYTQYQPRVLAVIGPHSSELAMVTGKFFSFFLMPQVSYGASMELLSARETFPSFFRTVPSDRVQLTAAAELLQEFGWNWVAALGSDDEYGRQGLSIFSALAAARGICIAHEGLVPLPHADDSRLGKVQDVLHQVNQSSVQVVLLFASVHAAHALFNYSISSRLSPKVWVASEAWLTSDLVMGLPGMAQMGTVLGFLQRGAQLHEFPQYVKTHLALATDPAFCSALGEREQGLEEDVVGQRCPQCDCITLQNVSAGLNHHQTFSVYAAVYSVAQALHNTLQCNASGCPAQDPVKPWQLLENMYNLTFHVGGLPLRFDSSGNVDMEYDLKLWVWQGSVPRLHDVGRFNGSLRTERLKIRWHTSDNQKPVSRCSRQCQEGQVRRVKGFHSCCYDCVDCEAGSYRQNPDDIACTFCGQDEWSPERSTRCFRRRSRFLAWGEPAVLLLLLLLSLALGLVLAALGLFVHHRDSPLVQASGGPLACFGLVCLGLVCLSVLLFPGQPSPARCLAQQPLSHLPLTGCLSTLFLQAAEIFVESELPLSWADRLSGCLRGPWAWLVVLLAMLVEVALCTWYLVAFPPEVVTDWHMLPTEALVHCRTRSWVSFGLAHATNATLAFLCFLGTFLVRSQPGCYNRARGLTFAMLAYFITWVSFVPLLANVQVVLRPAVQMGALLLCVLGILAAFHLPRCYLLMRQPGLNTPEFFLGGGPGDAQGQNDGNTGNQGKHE

B1: thaumatin (protein)
chain: ATFEIVNRCSYTVWAAASKGDAALDAGGRQLNSGESWTINVEPGTKGGKIWARTDCYFDDSGSGICKTGDCGGLLRCKRFGRPPTTLAEFSLNQYGKDYIDISNIKGFNVPMDFSPTTRGCRGVRCAADIVGQCPAKLKAPGGGCNDACTVFQTSEYCCTTGKCGPTEYSRFFKRLCPDAFSYVLDKPTTVTCPGSSNYRVTFCPTA
modifications: Eight disulfides
notes: sweet-tasting plant protein, E957

Target: T1, human TAS1R2-WT/TAS1R3-R247H
Assay: Calcium mobilisation assay, TAS1R2-WT with TAS1R3 variant R247H
Type: cell-based
Settings: for Max ΔF/F0: maximal signal amplitude
Source text: The coding sequences for TAS1R2 and TAS1R3 were commercially synthesised, and the human codon was optimised for expression in human cells. The coding sequences of human TAS1R2 and TAS1R3 were subcloned and inserted into the mammalian expression vectors pcDNA6/myc-HisA and pcDNA4/myc-HisA (Invitrogen; Thermo Fisher Scientific; Illkirch, France) between the EcoRI and NotI restriction sites, generating the plasmids pcDNA6-TAS1R2 and pcDNA4-TAS1R3, respectively. To increase protein expression in mammalian cells, an upstream start codon was used, which was a sequence called MAX, corresponding to the QBI SP163 element also described in pcDNA4-HisMax (Invitrogen; Thermo Fisher Scientific; Illkirch, France). To measure the expression level of the receptor by immunohistochemistry, we used the FLAG sequence ([…]) in the C-terminal position, which encodes the FLAG tag epitope. SNP variants of TAS1R2 and TAS1R3 were constructed based on […], respectively, using site-directed mutagenesis (Genewiz; Leipzig, Germany).
The HEK293T cells were kindly provided by Jay P. Slack (Givaudan Flavors Corporation; Cincinnati, OH, USA). HEK293T cells stably transfected with Gα16gust44 [43, 67] were seeded in poly-D-lysine-coated clear-bottom black 96-well plates (0.35 × 10^5 cells/well) in high-glucose DMEM supplemented with 2 mM GlutaMAX, 10% dialysed foetal bovine serum with penicillin/streptomycin and G418 (400 μg/mL) at 37 °C and 6.3% CO2 in a humidified atmosphere as previously reported. […] As a negative control, HEK293T cells were mock-transfected with the empty expression vector. After a further 24 h of incubation, the HEK293T cells were washed with C1 buffer (130 mM NaCl, 5 mM KCl, 10 mM HEPES pH 7.4 and 2 mM CaCl2). The 96-well plates containing the cells were then stimulated with sweet-tasting compounds. […] Different concentration ranges were tested depending on the sweet compound injected. The Ca^2+ changes were expressed as fractional changes in fluorescent light intensity: ΔF/F = (F − F0)/F0, where F was the fluorescent light intensity at each point, and F0 was the value of emitted fluorescent light prior to stimulus application. To calculate dose–response relationships, the changes in fluorescence upon stimulus application were averaged, mock-subtracted and baseline-corrected. The dose–response data obtained were adjusted using a 4-parameter logistic equation. The half-maximal effective concentrations (EC50 values) and maximal signal amplitudes were calculated using SigmaPlot software (version 15.0) (Systat Software; San Jose, CA, USA).
For in vitro calcium mobilisation assay performed on hTAS1R2-SNPs, hTAS1R3-SNPs and mTAS1R3-I60T, 6 to 7 concentrations were tested for each sweet compound, plus buffer alone. All concentration–receptor combinations were measured in duplicate, and each experiment was repeated at least 4 times (8 wells/concentration). Results were expressed for each concentration as ΔF/F mean ± SEM and represented as dose–response curves.

Molecule | R1 = Variant EC50/WT EC50 | Max ΔF/F0 | EC50 (read-out: EC50) [µM] | EC50 (brazzein) [µg/mL]
CC1=CC(=O)NS(=O)(=O)O1 [Acesulfame K, acesulfame K] | 1.0 | 0.33 ± 0.01 | 639 ± 17 | 
O=S(=O)(O)NC1CCCCC1 [Cyclamate, cyclamate] |  |  | 1520 ± 46 | 
C[C@H](CC[C@@H](O[C@@H]1O[C@H](CO[C@@H]2O[C@H](CO)[C@@H](O)[C@H](O)[C@H]2O)[C@@H](O)[C@H](O)[C@H]1O[C@@H]1O[C@H](CO)[C@@H](O)[C@H](O)[C@H]1O)C(C)(C)O)[C@H]1CC[C@@]2(C)[C@@H]3CC=C4[C@@H](CC[C@H](O[C@@H]5O[C@H](CO[C@@H]6O[C@H](CO)[C@@H](O)[C@H](O)[C@H]6O)[C@@H](O)[C@H](O)[C@H]5O)C4(C)C)[C@]3(C)[C@H](O)C[C@]12C [Mogroside V, mogroside V] | 0.9 | 1.12 ± 0.02 | 28.7 ± 1.6 | 
COc1ccc(CCC(=O)c2c(O)cc(O[C@@H]3O[C@H](CO)[C@@H](O)[C@H](O)[C@H]3O[C@@H]3O[C@@H](C)[C@H](O)[C@@H](O)[C@H]3O)cc2O)cc1O [NHDC, neohesperidin dihydrochalcone] | 1.3 | 1.14 ± 0.05 | 65 ± 8.9 | 
COC(=O)[C@H](Cc1ccccc1)NC(=O)[C@H](CC(=O)O)NCCC(C)(C)C [Neotame] | 0.9 | 0.71 ± 0.02 | 1.12 ± 0.07 | 
C=C(C)[C@@H]1CC=C(/C=N/O)CC1 [Perillartine, perillartine] | 0.6 | 1.26 ± 0.15 | 8.5 ± 3.1 | 
C=C1C[C@@]23CC[C@H]4[C@@](C)(CCC[C@@]4(C)C(=O)O[C@@H]4O[C@H](CO)[C@@H](O)[C@H](O[C@@H]5O[C@H](CO)[C@@H](O)[C@H](O)[C@H]5O)[C@H]4O[C@@H]4O[C@H](CO)[C@@H](O)[C@H](O)[C@H]4O)[C@@H]2CC[C@]1(O[C@@H]1O[C@H](CO)[C@@H](O)[C@H](O[C@@H]2O[C@H](CO)[C@@H](O)[C@H](O)[C@H]2O)[C@H]1O[C@@H]1O[C@H](CO)[C@@H](O)[C@H](O)[C@H]1O)C3 [Rebaudioside M, rebaudioside M] | 0.7 | 1.15 ± 0.04 | 29.7 ± 2.6 | 
OC[C@H]1O[C@H](O[C@]2(CCl)O[C@H](CCl)[C@@H](O)[C@@H]2O)[C@H](O)[C@@H](O)[C@H]1Cl [Sucralose] | 1.1 | 0.69 ± 0.01 | 122 ± 2 | 
brazzein (QDKCKKVYENYPVSKCQLANQCNYDCKLDKHARSGECFYDEKRNLQCICDYCEY; ends and bridges not checked; cysteine pairing not given here; UniProt P56552 1-54, looked up) [sweet-tasting protein obtained by recombinant production using the yeast Pichia pastoris] | 0.6 | 0.95 ± 0.03 |  | 70.8 ± 8.1
thaumatin | 0.8 | 0.73 ± 0.08 |  | 
B1 |  |  | 8.2 ± 2.3 | 

Reference: publication PMC11945486, “TAS1R2/TAS1R3 Single-Nucleotide Polymorphisms Affect Sweet Taste Receptor Activation by Sweeteners: The SWEET Project” (Nutrients, 2025)
